This is an account of results in US6861428B2, “Water-soluble phenylpyridazine compounds and compositions containing the same” (Kowa Co., Ltd., priority 2001, dated 2005).

Where two headings read alike, the source gives them in different places.

One series can be described thus: Water solubility test. The class given is physicochemical. To be noted: for Solubility (%): purified water, from amount of water required for dissolution; for Dissolution in amount of added water: 100 mL purified water added. As to the method:
Each sample compound was weighed in the amount shown in Table 3, to which purified water was added in 0.05 mL aliquots. The solubility (%) of the compound was determined based on the amount of water required for its dissolution.

Series [1] has as its system interleukin-1β production. Nature of the series: Inhibitory activity against interleukin-1β production (LPS-stimulated HL-60 cells, ELISA). To be noted: lipopolysaccharide 10 μg/mL, 3 days. The series is classed as cell-based. As to the method: Inhibitory Activity Against Interleukin-1β Production
HL-60 cells were cultured for 4 days until confluence on RPMI 1640 medium with 10% fetal bovine serum (FBS) added thereto. The medium was centrifuged. The supernatant was discarded, and the cells were then suspended at 1×10^6 cells/mL on RPMI 1640 medium with 3% FBS, and lipopolysaccharide was added to give a final concentration of 10 μg/mL. The culture was inoculated at 1 mL/well to a 24-well plate. A sample compound was added at 1 μL/well, followed by culturing for 3 days. Three days later, the amount of interleukin-1β in each culture was determined by ELISA. Each IC50 value was determined by a comparison in yield with a control to which no test sample was added.
In general terms: In an ELISA, binding on a coated surface is turned into a signal by an enzyme label.

Series [2] is described as follows: Oral absorbability test on rats and/or mice. The series is classed as in vivo. To be noted: orally administered to mice and/or rats, as in Experiment 3, FIGS. 2 to 6. On the procedure:
The compound of Example 83 and the comparative compound 3 were suspended at 2 mg/mL with a 0.5% MC solution in mortars, respectively, and were orally administered to male SD rats at 10 mg/5 mL/kg. Upon elapsed time of 0.25, 0.5, 1, 2, 4, 6 and 8 hours after the administration, blood samples were collected and then centrifuged to provide plasma samples. The plasma levels of the respective compounds were determined by HPLC. […] The compound of Example 83 is, therefore, useful as an orally dosable medicine.
In a similar manner as in Experiment 3, test compounds of Examples 23, 25, 143, 193, 245, 246, 247, 248 and 249 were orally administered to mice and/or rats to test their oral absorbability.

[3] abbreviates: Homo sapiens, 72 h, Table 1, read-out: IL-1β production inhibiting activity IC50.
Setting [4] is: Table 1, read-out: IL-1β production inhibiting activity IC50.
The mark [5] stands for this setting: Homo sapiens, 72 h, Table 2, read-out: IL-1β production inhibiting activity IC50.

The IC50 is the concentration needed to halve the response being measured. `COc1ccc(-c2cc(CN3CCN(Cc4ccccc4)CC3)c(=O)n(CC3CC3)n2)cc1F.Cl.Cl` [Example 18, 4-(4-benzyl-1-piperazinyl)methyl-2-cyclopropylmethyl-6-(3-fluoro-4-methoxyphenyl)-2H-pyridazin-3-one dihydrochloride]: in “Water solubility test”, the “Solubility (%)” value is on record as 1%. In series [1] (setting [3]), the IC50 is 5.4 µM.

With `COc1ccc(-c2cc(CN3CCNCC3)c(=O)n(CC3CC3)n2)cc1F.Cl.Cl` [Example 21, 2-cyclopropylmethyl-6-(3-fluoro-4-methoxyphenyl)-4-(1-piperazinyl)methyl-2H-pyridazin-3-one dihydrochloride], in “Water solubility test”, the “Solubility (%)” value was above 20%. Besides, the IC50 in series [1] (setting [3]) turned out to be 1.01 µM. For the compound `COc1ccc(-c2cc(CN(CCO)CCO)c(=O)n(CC3CC3)n2)cc1F.Cl` [Example 23, 4-N,N-bis(2-hydroxyethyl)aminomethyl-2-cyclopropylmethyl-6-(3-fluoro-4-methoxyphenyl)-2H-pyridazin-3-one hydrochloride], the “Solubility (%)” value in the series “Water solubility test” was determined as 10%. Also, the IC50 in series [1] (setting [4]) is 12.3 µM. Moreover, in series [2], the Oral absorbability entry was “good absorbability”. Turning to `Cc1ccc(-c2cc(CN(C)C)c(=O)n(CC(C)C)n2)cc1.Cl` [Example 45, 4-dimethylaminomethyl-2-isobutyl-6-(4-methylphenyl)-2H-pyridazin-3-one hydrochloride], in the series “Water solubility test”, the “Solubility (%)” value stood at 4%. The IC50 in series [1] (setting [3]) was 6.21 µM. The corresponding values for `CCN(CC)Cc1cc(-c2ccc(C)cc2)nn(CC(C)C)c1=O.Cl` [Example 47, 4-diethylaminomethyl-2-isobutyl-6-(4-methylphenyl)-2H-pyridazin-3-one hydrochloride] are above 20% and 5.2 µM. Regarding `Cc1cc(-c2cc(CN(C)C)c(=O)n(CC(C)C)n2)ccc1F.Cl` [Example 89, 4-dimethylaminomethyl-6-(4-fluoro-3-methylphenyl)-2-isobutyl-2H-pyridazin-3-one hydrochloride], the “Solubility (%)” value in the series “Water solubility test” is above 20%. In series [1] (setting [3]), the concentration for half-maximal inhibition (IC50) is 5.5 µM.

For `CC(C)Cn1nc(-c2ccc(F)c(F)c2)cc(CN(CCO)CCO)c1=O.Cl` [Example 108, 4-N,N-bis(2-hydroxyethyl)aminomethyl-6-(3,4-difluorophenyl)-2-isobutyl-2H-pyridazin-3-one hydrochloride], in “Water solubility test”, the “Solubility (%)” value is on record as above 20%. Moreover, the IC50 in series [1] (setting [4]) is 3.44 µM.

By melting point is commonly meant the temperature of the solid-liquid transition. In turn, `CSc1ccc(-c2cc(CN3CCN(C)CC3)c(=O)n(CC3CC3)n2)cc1.Cl.Cl` [Example 149, 2-cyclopropylmethyl-4-(4-methyl-1-piperazinyl)methyl-6-[4-(methylthio)phenyl]-2H-pyridazin-3-one dihydrochloride] came in with a melting point of 234.6 to 239.2 °C. Further, the “Solubility (%)” value in the series “Water solubility test” was above 10%. Moreover, the half-maximal inhibitory concentration (IC50) in series [1] (setting [3]) amounted to 1.63 µM. On to `COc1ccc(-c2cc(CN)c(=O)n(CC3CCCC3)n2)cc1F.Cl` [Example 188, 4-aminomethyl-2-cyclopentylmethyl-6-(3-fluoro-4-methoxyphenyl)-2H-pyridazin-3-one hydrochloride], for which the “Solubility (%)” value in the series “Water solubility test” is recorded as 0.08%. Regarding `COc1ccc(-c2cc(CN3CCNCC3)c(=O)n(Cc3ccc(F)cc3)n2)cc1F.Cl.Cl` [Example 193, 2-(4-fluorobenzyl)-6-(3-fluoro-4-methoxyphenyl)-4-(1-piperazinyl)methyl-2H-pyridazin-3-one dihydrochloride], the “Solubility (%)” value in the series “Water solubility test” was 5%. Besides, the Oral absorbability entry in series [2] is “good absorbability”. Turning to `COc1ccc(-c2cc(CN)c(=O)n(Cc3ccc(F)cc3)n2)cc1F.Cl` [Example 195, 4-aminomethyl-2-(4-fluorobenzyl)-6-(3-fluoro-4-methoxyphenyl)-2H-pyridazin-3-one hydrochloride], the “Solubility (%)” value in “Water solubility test” came to 0.2%. Same read-out and setting: next, `COc1ccc(-c2cc(CN)c(=O)n(Cc3ccc(Cl)cc3)n2)cc1F.Cl` [Example 206, 4-aminomethyl-2-(4-chlorobenzyl)-6-(3-fluoro-4-methoxyphenyl)-2H-pyridazin-3-one hydrochloride]: 0.06%.

`COc1ccc(-c2cc(CN(C)C)c(=O)n(Cc3ccc(F)c(F)c3)n2)cc1F` [Example 208, 2-(3,4-difluorobenzyl)-4-dimethylaminomethyl-6-(3-fluoro-4-methoxyphenyl)-2H-pyridazin-3-one] yielded a melting point of 129.9 to 130.4 °C. Besides, the IC50 in series [1] (setting [5]) came to 6.1 µM. The corresponding values for `COc1ccc(-c2cc(CN3CCN(C)CC3)c(=O)n(CC=Cc3ccc(Cl)cc3)n2)cc1F` [Example 209, 2-(4-chlorocinnamyl)-6-(3-fluoro-4-methoxyphenyl)-4-(4-methyl-1-piperazinyl)methyl-2H-pyridazin-3-one] are 123.9 to 125.5 °C and 2.8 µM.

With `COc1ccc(-c2cc(CCCN3CCNCC3)c(=O)n(CC3CC3)n2)cc1F.Cl.Cl` [Example 214, 2-cyclopropylmethyl-6-(3-fluoro-4-methoxyphenyl)-4-[3-(1-piperazinyl)propyl]-2H-pyridazin-3-one dihydrochloride], the “Solubility (%)” value in “Water solubility test” amounted to 10%. As for `COc1ccc(-c2cc(CCCN)c(=O)n(CC3CC3)n2)cc1F.Cl` [Example 217, 4-(3-aminopropyl)-2-cyclopropylmethyl-6-(3-fluoro-4-methoxyphenyl)-2H-pyridazin-3-one hydrochloride], the “Solubility (%)” value in “Water solubility test” was 10%.

`Cc1cc(-c2cc(CN3CCN(C)CC3)c(=O)n(Cc3ccc(Cl)cc3)n2)ccc1F` [Example 222, 2-(4-chlorobenzyl)-6-(4-fluoro-3-methylphenyl)-4-(4-methyl-1-piperazinyl)methyl-2H-pyridazin-3-one] registered a melting point of 133.3 to 133.8 °C. In addition, the IC50 in series [1] (setting [5]) stood at 5.8 µM.

In turn, `Cc1cc(-c2cc(CCCN)c(=O)n(Cc3ccccc3Cl)n2)ccc1F` [Example 227, 4-(3-aminopropyl)-2-(2-chlorobenzyl)-6-(4-fluoro-3-methylphenyl)-2H-pyridazin-3-one] came in with a melting point of 80 to 85 °C. For the same compound, the half-maximal inhibitory concentration (IC50) in series [1] (setting [5]) is 5.2 µM. With `COc1ccc(-c2cc(CN3CCN(C)CC3)c(=O)n(Cc3ccc(F)c(F)c3)n2)cc1F.Cl.Cl` [Example 245, 2-(3,4-difluorobenzyl)-6-(3-fluoro-4-methoxyphenyl)-4-(4-methyl-1-piperazinyl)methyl-2H-pyridazin-3-one dihydrochloride], the “Solubility (%)” value in the series “Water solubility test” is given as 10%. For the same compound, in series [2], the Oral absorbability result was “good absorbability”. For `COc1ccc(-c2cc(CN(C)C)c(=O)n(Cc3ccc(F)c(F)c3)n2)cc1F.Cl` [Example 246, 2-(3,4-difluorobenzyl)-4-dimethylaminomethyl-6-(3-fluoro-4-methoxyphenyl)-2H-pyridazin-3-one hydrochloride], the “Solubility (%)” value in “Water solubility test” was 2%. In series [2], the Oral absorbability entry is on record as “good absorbability”.

On to `Cc1cc(-c2cc(CN3CCN(C)CC3)c(=O)n(CCCc3ccc(Cl)cc3)n2)ccc1F.Cl.Cl` [Example 247, 2-[3-(4-chlorophenyl)propyl]-6-(4-fluoro-3-methylphenyl)-4-(4-methyl-1-piperazinyl)methyl-2H-pyridazin-3-one dihydrochloride], for which the “Solubility (%)” value in “Water solubility test” turned out to be 10%. The Oral absorbability entry in series [2] is “good absorbability”. The corresponding values for `COc1ccc(-c2cc(CN3CCN(C)CC3)c(=O)n(CC=Cc3ccc(Cl)cc3)n2)cc1F.Cl.Cl` [Example 248, 2-(4-chlorocinnamyl)-6-(3-fluoro-4-methoxyphenyl)-4-(4-methyl-1-piperazinyl)methyl-2H-pyridazin-3-one dihydrochloride] are 0.06% and “good absorbability”. The corresponding values for `COc1ccc(-c2cc(CN3CCN(CCO)CC3)c(=O)n(CC=Cc3ccc(Cl)cc3)n2)cc1F.Cl.Cl` [Example 249, 2-(4-chlorocinnamyl)-6-(3-fluoro-4-methoxyphenyl)-4-[4-(2-hydroxyethyl)-1-piperazinyl]methyl-2H-pyridazin-3-one dihydrochloride] are 0.03% and “good absorbability”. On to `CCOC(=O)Nc1cc(-c2ccc(OC)cc2)nn(C/C=C/c2ccc(Cl)cc2)c1=O` [compound 1, reference compound], for which, in the series “Water solubility test”, the “Dissolution in amount of added water” value is on record as “(insoluble)” and the “Solubility (%)” value is recorded as below 0.001%.

Regarding `CNC(=O)c1cc(-c2ccc(OC)cc2)nn(CC(C)C)c1=O` [compound 2, reference compound], in the series “Water solubility test”, the “Dissolution in amount of added water” value is “(insoluble)” and the “Solubility (%)” value is recorded as below 0.001%. The corresponding values for `COc1ccc(-c2cc(C(=O)O)c(=O)n(C/C=C/c3ccc(Cl)cc3)n2)cc1` [compound 4, reference compound] are “(insoluble)” and below 0.001%.
